In US11021507B2, “Myricetin derivative and preparing method thereof, and application of same for treating colitis, preventing and treating colitis tumorigenesis, and treating colorectal cancer” (MARINE BIOMEDICAL RESEARCH INSTITUTE OF QINGDAO CO., LTD., priority 2016, dated 2021):

What was measured:
[1] = test system: azomethane (AOM)/dextran sulfate sodium (DSS)-induced chronic ulcerative colitis and inflammation-associated tumorigenesis; assay: AOM/DSS-induced chronic ulcerative colitis and inflammation-associated tumorigenesis in mice; assay type: in vivo, C57BL/6 mice
Description: Determination of therapeutic effect of myricetin derivative M10 on azomethane (AOM)/dextran sulfate sodium (DSS)-induced chronic ulcerative colitis and inflammation-associated tumorigenesis.
Compound tested and control drugs: myricetin derivative M10, control compound myricetin, aspirin (Sigma).
Experimental animals: C57BL/6 mice, 20 to 22 g, both male and female, SPF grade provided by Beijing Vital Lihua Experimental Animal Company, and mice were fed with standard animal feed.
Animal models of AOM/DSS-induced chronic colitis and inflammation-associated tumorigenesis: 48 C57BL/6 mice were randomly divided into six groups with eight mice in each group, including model group, for which 0.5% CMC-Na was administered intragastrically every day; aspirin group, for which 100 mg/kg of aspirin (dissolved in 0.5% CMC-Na) was administered intragastrically; myricetin control group, for which 100 mg/kg of myricetin (dissolved in 0.5% CMCNa) was administered intragastrically; M10 high dose group, for which 100 mg/kg of M10 (dissolved in pure water) was administered intragastrically; M10 medium dose group, for which 50 mg/kg of M10 (dissolved in pure water) was administered intragastrically; M10 low dose group, for which 25 mg/kg of M10 (dissolved in pure water) was administered intragastrically.
Preparation of chronic ulcerative colitis mice model: said groups of mice were intraperitoneally injected with 10 mg/kg of azoxymethane (AOM) on day one. Purified drinking water containing 2% dextran sulfate sodium (DSS) was freshly made and provided on day one and on the next six consecutive days, the replaced by purified drinking water for the next seven consecutive days. The above procedure was then repeated for 3 more times.
M10-treated group: 200 mg of M10 was weighed and dissolved in 10 mL of 0.5% CMC-Na solution (20 mg/mL), and consecutively diluted 2 times and 5 times for future use. 0.2 mL of each prepared solutions was given intragastrically to mice (the body weight was assumed as 20 g per mouse), namely divided into high, medium or small dose groups. Myricetin control group: 200 mg of myricetin was weighed and dissolved in 10 mL of 0.5% CMC-Na. Aspirin-treated group: 200 mg of aspirin was weighed and dissolved in 10 mL of 0.5% CMC-Na. Administration method: The body weight of mice was measured daily, and drugs were administered at 0.01 mL/g (100 mg/kg) per day for 12 consecutive weeks. 4. Animal observation and treatment methods: weight, diet, diarrhea (or bloody stools) etc. were observed daily.
At the end of the experiment, mice were sacrificed. The colon and small intestine were dissected out for visual observation and pathological analysis. Pathological examination methods and evaluation criteria: the mice colons of each group were fixed with 10% formalin, followed by routine paraffin embedding, sectioning and HE staining. The developmental degree of colonic inflammation and colon cancer in each group of mice was evaluated under microscopic observation.

[2] = test system: endoplasmic reticulum stress signaling molecules GRP78, ATF6, PelF-2a and IREa; assay: AOM/DSS-induced endoplasmic reticulum stress in mouse colon (FIG. 9); assay type: in vivo, C57BL/6 mice
Description: FIG. 9 illustrates the mechanism of M10 in inhibiting endoplasmic reticulum stress induced by AOM/DSS in Example 13;

[3] = test system: KM mice; assay: Acute toxicity experiment, maximum tolerated dose in mice; assay type: in vivo
Protocol: Acute Toxicity Experiment on Myricetin Derivative M10, Testing Maximum Tolerated Dose in Mice.
Animal germ line: KM mice
The KM mice with quarantine conformity were selected for the experiment. 10 mice weighing 18 g-22 g each after fasting were randomly selected, labeled and housed in separate cages.
In accordance with the acute toxicity testing method in Healthy Food Inspection and Evaluation Technical Specifications (2003 edition), sample solutions were prepared and administered twice intragastrically within 24 hours with the maximum dose of 20 mL/kg. Mice were monitored 1, 4, 8, 24, 48, 72, 96, 120, 144, 168 and 336 hours respectively after drug administration, and the maximum tolerable dose in mice was calculated if no mouse died.

[4] = test system: signaling molecules ATG3, ATG5, ATG7, ATG12, and ATG1611; assay: Cellular autophagy caused by AOM/DSS-induced endoplasmic reticulum stress in colonic epithelial cells (FIG. 10); assay type: in vivo, C57BL/6 mice
Description: FIG. 10 illustrates the mechanism of M10 in inhibiting cellular autophagy and colonic epithelial cell proliferation and carcinogenesis caused by AOM/DSS-induced endoplasmic reticulum stress in Example 13;

[5] = Water solubility test (equilibrium solubility in pure water, LC/MS); assay type: physicochemical; details: 37° C.
Protocol: Water solubility test for myricetin derivative M5, M6 and M10
Instrument: Waters Alliance e2695 LC/MS; chromatographic column: Waters×Bridge C18 4.6×150 mm.
Appropriate amount of said myricetin derivative was weighed and dissolved in methanol to prepare a solution of 1 mg/ml respectively, which was diluted with methanol to different concentrations of working solution as standard samples for testing.
2. 1 mL of ultrapure water was added into a 1.5 ml transparent EP tube. Appropriate amount of said myricetin derivative was each added into a transparent EP tube, followed by vortex mixation and ultrasonication till the drug was no longer dissolved (the solution appeared cloudy or had suspended particles). The mixture was then placed in an incubating oscillator for shaking at the temperature of (37±1) ° C., 100 r/min, for 24 hours, to achieve a sufficient solubility balance. 24 hours later, the saturated solution was taken out for centrifugation at 3000 r/min for 15 min. The supernatant was immediately filtered through a 0.45 μm microporous membrane, and the initial part of the filtrate was discarded. Samples were added for chromatography. The peak area was measured and the equilibrium solubility of each compound in pure water was calculated using a standard curve.

Structure (SMILES): O=c1c(O[C@@H]2O[C@H](CO)[C@@H](O[C@@H]3O[C@H](CO)[C@H](O)[C@H](O)[C@H]3O)[C@H](O)[C@H]2O)c(-c2cc(O)c(O)c(O)c2)oc2cc(O)cc(O)c12 [M10]
- Pathological analysis of colon tissue (colon cancer) ([1]; 100 mg/kg aspirin or myricetin, M10 25-100 mg/kg, 12 weeks, FIG. 8): significant activity of preventing and treating colon cancer
- Symptoms of AOM/DSS-induced chronic colitis (body weight loss, loose stools, blood in stool) ([1]; M10 25, 50 and 100 mg/kg intragastrically, 12 weeks): significantly alleviated
- Number of colon tumor nodules ([1]; all doses (25, 50, 100 mg/kg), after 12 weeks, FIG. 6 and FIG. 7): significantly reduced
- Loss of body weight induced by AOM/DSS ([1]; intragastric, 12 weeks, week 10 to 12, FIG. 4): significantly prevented
- Swollen endoplasmic reticulum membrane, irregular fracture arrangement ([2]; FIG. 9A): significantly alleviated
- Activation of stress signaling molecules GRP78, ATF6, PelF-2a and IREa ([2]; FIG. 9B): significantly inhibited
- Maximum tolerable dose in mice ([3]; administered twice intragastrically within 24 hours, 0.02 mL/g, 250 mg/mL, 14 days observation): more than 5 g/kg
- Toxicity during whole observation period ([3]; fourteen days observation): no obvious toxicity
- Death ([3]; mouse, in vivo): No death
- Autophagic vacuoles in colonic epithelial cells with mitochondrial swelling ([4]; FIG. 10A): significantly alleviated
- Activation of signaling molecules ATG3, ATG5, ATG7, ATG12 and ATG1611 ([4]; FIG. 10B): significantly inhibited
- Solubility (in words) ([5]; 24 h, per Table 2): excellent solubility
- solubility at 24 h ([5]; ultrapure water, thermodynamic from solid): > 100 mg/mL
